Measurements from US20070196886A1 (priority 2004, published 2007).
Like-named read-outs stand apart in the source and are kept apart here.

Assays:
RNAP holoenzyme [1] = biological target: T1, RNAP holoenzyme (Escherichia coli, UniProt P0A8T7+P0A8V2); assay: Electrophoretic mobility shift assays (open-complex formation); assay type: biochemical; conditions: MccJ25 at 1, 10, or 100 μM; lacUV5 promoter
Experimental: Following 15 min at 37° C., 0.5 μl 1 mg/ml heparin was added (to disrupt non-specific complexes), and, following a further 2 min at 37° C., reaction mixtures were applied to 5% polyacrylamide slab gels (30:1 acrylamide/bisacrylamide; 6×9×0.1 cm) and electrophoresed in 90 mM Tris-borate (pH 8.0) and 0.2 mM EDTA (20 V/cm; 30 min at 37° C.) and analyzed using a fluorescence scanner (Storm 860; Molecular Dynamics)

RNAP holoenzyme [2] = biological target: T1, RNAP holoenzyme; assay type: biochemical; conditions: for Vmax: FIG. 3E
Experimental: (§1) Following 15 min at 37° C., 0.5 μl 1 mg/ml heparin was added, and, following a further 2 min at 37° C., RNA synthesis was initiated by addition of 2 μl 5 mM ApA and 125 μM (or 250 μM, 500 μM, and 1 mM) each of [α-^32P]UTP (0.6 Bq/fmol), ATP, CTP, GTP. Following 5 min at 37° C., reactions were terminated by addition of 10 μl 80% formamide, 10 mM EDTA, 0.04% bromophenol blue, and 0.04% xylene cyanol. Products were heated 10 min at 90° C., resolved by urea-PAGE (Sambrook and Russel, (2001)), and quantified using a storage-phosphor scanner (Storm 860; Molecular Dynamics). Identities of tri- and tetranucleotide abortive products were defined as in Borowiec and Gralla, (1985) J. Mol. Biol. 184, 587-598). Data were fit to full-competitive, partial-competitive, full-noncompetitive, partial-noncompetitive, full-uncompetitive, partial-uncompetitive, full-mixed, and partial-mixed models of inhibition using the Fit-To-Model feature of the SigmaPlot Enzyme Kinetics Module (SPSS).

[3] = biological target: T2, [Ile931]β′ RNAP holoenzyme (Escherichia coli, UniProt P0A8T7+P0A8V2, T931I); assay: Transcription assays with RNAP derivative bearing Thr931→Ile substitution in β′; assay type: biochemical
T2 construct: [Ile931]β′ RNAP core and holoenzyme were prepared from strain 397c; hexahistidine (C); made in house; host or cells: E. coli strain 397c (rpoC^ts397) transformed with a pRL663 derivative
Experimental: as §1

RNAP holoenzyme [4] = biological target: T1, RNAP holoenzyme; assay type: biochemical; conditions: FIG. 3F
Experimental: Following 15 min at 37° C., 0.5 μl 1 mg/ml heparin was added, and, following a further 2 min at 37° C., 1 μl of 0.25-5 mM (γ-AmNS)UTP (Molecular Probes) was added, and reaction mixtures were transferred to sub-micro fluorometer cuvettes (Starna Cells). Following 2 min at 37° C., RNA synthesis was initiated by addition of 2.5 μl 10 mM ApA, and fluorescence emission intensity was monitored 5 min at 37° C. [excitation wavelength=360 nm and emission wavelength=500 nm; excitation and emission slit widths=4 nm; QuantaMaster QM1 spectrofluorometer (PTI)]. The quantity of UMP incorporated into RNA was determined from the quantity of (γ-AmNS)UTP consumed, which, in turn, was calculated as follows (Schlageck et al., (1979) J. Biol. Chem. 254, 12074-12077): (γ-AmNS)UTPconsumed=[(γ-AmNS)UTP0](Ft−F0)/(12.4×F0) (1) where (γ-AmNS)UTP0 is the quantity of (γ-AmNS) UTP at time 0, F0 is the fluorescence emission intensity at time 0, and Ft is the fluorescence emission intensity at time t. Data were fit to full-competitive, partial-competitive, full-noncompetitive, partial-noncompetitive, full-uncompetitive, partial-uncompetitive, full-mixed, and partial-mixed models of inhibition as in the preceding section.

[5] = biological target: T3, halted transcription elongation complex containing 12 nt of RNA (TEC12) (Escherichia coli, UniProt P0A8T7+P0A8V2); assay: Transcription experiment starting with halted elongation complex (TEC12); assay type: biochemical; conditions: 0, 1, 10, or 100 μM MccJ25; compared with open-complex experiments
T3 construct: made in house
Experimental: TEC12 was prepared by reaction for 5 min at 37° C. with 0.5 mM ApA, and 12.5 μM each of [α-^32P]UTP, ATP, and GTP.

bacterial RNAP = conditions: unpublished data

Microcin J25 [MccJ25]
effect on formation of open complex (RNAP holoenzyme [1]): no effect | mode of inhibition with respect to NTPs (RNAP holoenzyme [2]): partial competitive | inhibition of formation of abortive products (3 nt and 4 nt RNA species) (RNAP holoenzyme [2]; 100 μM MccJ25, 5 min at 37° C.): 86% | inhibition of formation of the full-length product (26 nt RNA species) (RNAP holoenzyme [2]; 100 μM MccJ25, 5 min at 37° C.): 94% | effect of high NTP concentrations on inhibition (RNAP holoenzyme [2]; NTP 12.5, 25, 50, 100 μM): can overcome inhibition | Vmax (RNAP holoenzyme [2]; at 1 μM MccJ25): 1.9±0.4 mol/mol template/min | Vmax (RNAP holoenzyme [2]; at 10 μM MccJ25): 1.4±0.7 mol/mol template/min | inhibition upon substitution of residue 931 of the RNAP β′ subunit [3]: overcome completely | Vmax (RNAP holoenzyme [4]; at 1 μM MccJ25): 5.3±2.8 mol/mol template/min | Vmax (RNAP holoenzyme [4]; at 10 μM MccJ25): 2.4±2.9 mol/mol template/min | inhibition of formation of full-length product starting with halted elongation complex [5]: equivalent results | cross-resistance with rifampicin (bacterial RNAP): do not exhibit cross-resistance with rifampicin
